Laboratory results: patent US9193777B2, “Method of treating cardiac arrhythmia with long acting atrial natriuretic peptide(LA-ANP)” (Mayo Foundation for Medical Education and Research, priority 2009, dated 2015)
Marks after values point to notes of the source that are not given here.

How the values were obtained:
[1] = system: 10 week old male FVB mice; assay: Programmed electrical stimulation of the ventricles in anesthetized mice; assay type: in vivo, mouse; conditions: for ERP versus 30 minute saline group (in words) / ERP (ventricular effective refractory period) / Heart rate / PR interval / QRST interval: anesthetized mice; for ERP versus 30 minute saline group (in words): 30 minute treatment, ANOVA; for ERP (ventricular effective refractory period) / Heart rate / PR interval / QRST interval: after 30 minute peritoneal infusion 33 pmol/kg/min following 330 pmol/kg bolus, n=3; for VT score: sum over three mice, after 30 minute infusion, higher score = greater resistance to arrhythmia induction
Experimental: Programmed electrical stimulation of the ventricles was performed across the diaphragm via bipolar electrode catheter placed through an abdominal incision in 10 week old male FVB mice anesthetized with inhaled isoflurane, and was continuously monitored by electrocardiogram. Electrophysiologic parameters were analyzed at baseline and after a 30 minute peritoneal infusion of saline vs. 33 pmol/kg/min ANP or mANP, following a 330 pmol/kg bolus. […] The ventricular tachycardia (VT) score was obtained by scoring 1 point for induction of sustained VT with a single extrastimulus, 2 points for induction with double extrastimuli, and 3 points for failure to induce with single or double extrastimuli. Nonsustained VT (less than 1 second) was not scored. The score for each of three mice in a group was added. A higher score indicates greater resistance to arrhythmia induction.

[2] = system: isolated perfused hearts obtained from male rats; assay: Isolated heart model: atrial monophasic action potential and effective refractory period; conditions: isolated rat heart; for effect on MAP duration (in words): 40-minute perfusion; for decrease in MAPD90 versus baseline: mANP n=8, ANP n=10
Experimental: Atrial monophasic action potentials and effective refractory periods were measured in isolated perfused hearts obtained from male rats. Rapid cardiectomy was performed in male rats weighing 300-350 g, under general anesthesia with pentobarbital. The hearts were retrogradely perfused via the aorta at constant pressure and temperature (100 mmHg and 37° C.) with Kreb's-Henseleit buffer filtered at 0.22 μm and bubbled with 95% O2/5% CO2 at 37° C. and pH 7.4. Coronary perfusion flow was monitored constantly (T402, Transonic Systems, Ithaca, N.Y.) and remained >10 ml/min.
After establishment of a stable perfused heart preparation, the posterior atria were cut away to expose the left and right atrial endocardium and the atrioventricular (AV) node was mechanically crushed, resulting in AV dissociation. The right atrium was paced (Bloom Electrophysiology, via Fischer Imaging, Denver, Colo.) at a cycle length of 150 msec with a 0.1 msec pulse width using a bipolar platinum-tipped electrode (NuMED, Inc., Hopkinton, N.Y.), while the right ventricle was paced at a cycle length of 500 msec. A monophasic action potential (MAP) probe (Harvard Apparatus, Holliston, Mass.) was maintained in a single position on the anterior left atrial endocardium. Amplified signals (IsoDam, World Precision Instruments, Sarasota, Fla.) were digitally acquired at 2 kHz (USB-6210 and LabVIEW 8.2, National Instruments, Austin, Tex.). The MAP duration was measured at 90% repolarization on atrial beats without far field ventricular interference. The effective refractory period (ERP) was measured by delivering extrastimuli via the pacing catheter at decremental coupling intervals following at least 8 beats of a 150 ms cycle-length drive train. […] In separate heart preparations, the perfusion buffer was supplemented after baseline data acquisition with 100 nM of either ANP or mANP to assess the effect of both the wild-type and mutant hormones on MAP duration and ERP.
A two-sided t-test was used for comparison of data, assuming equal variance. Data are expressed as mean±S.E., and results were considered significant at p<0.05.

[3] = 100 nM, 40 minutes perfusion, mean±S.E.

| Compound | ERP versus 30 minute saline group (in words) [1] | ERP (ventricular effective refractory period) [1] | Heart rate [1] | PR interval [1] | QRST interval [1] | VT score [1] | effect on MAP duration (in words) ([2]; 100 nM) | decrease in MAPD90 versus baseline [2, 3] [ms] | reduction in effective refractory period (ERP) versus baseline ([2]; 100 nM, 40 minutes perfusion, mean±S.E., mANP n=7, ANP n=6) [ms] | effect on ERP (in words) ([2]; 100 nM, compared to wild-type ANP) | MAP duration at 90% repolarization (MAPD90), representative MAP ([2]; after 40-minute perfusion with 100 nM peptide, shortened from 47 msec at baseline) [ms] |
| --- | --- | --- | --- | --- | --- | --- | --- | --- | --- | --- | --- |
| CC[C@H](C)[C@@H]1NC(=O)[C@H](CCCNC(=N)N)NC(=O)[C@H](CC(=O)O)NC(=O)[C@H](CCSC)NC(=O)[C@H](CCCNC(=N)N)NC(=O)CNC(=O)CNC(=O)[C@H](Cc2ccccc2)NC(=O)[C@@H](NC(=O)[C@H](CO)NC(=O)[C@H](CO)NC(=O)[C@H](CCCNC(=N)N)NC(=O)[C@H](CCCNC(=N)N)NC(=O)[C@H](CC(C)C)NC(=O)[C@@H](N)CO)CSSC[C@@H](C(=O)N[C@@H](CC(N)=O)C(=O)N[C@@H](CO)C(=O)N[C@@H](Cc2ccccc2)C(=O)N[C@@H](CCCNC(=N)N)C(=O)N[C@@H](Cc2ccc(O)cc2)C(=O)O)NC(=O)CNC(=O)[C@H](CC(C)C)NC(=O)CNC(=O)[C@H](CO)NC(=O)[C@H](CCC(N)=O)NC(=O)[C@H](C)NC(=O)CNC1=O [ANP, atrial natriuretic peptide] | not a significant difference | 28 + 2 msec | 255 + 8 min^−1 | 73 + 4 msec | 23 + 1 msec | 3 | not significantly changed | 0.7 ± 1.7 | – | – | – |
| mANP: Full-length 40-amino acid mutant ANP: normal 28-amino acid mature peptide plus an anomalous carboxyl-terminus of 12 residues (SLRRSSCFGGRMDRIGAQSGLGCNSFRYRITAREDKQGWA; listed as Homo sapiens) | significantly shorter | 19 + 4* msec | 243 + 16 min^−1 | 76 + 4 msec | 26 + 1 msec | 5 | significant shortening | 9 ± 2 | 7.1 ± 2.4 | significant shortening | 41 |
